Data reported in patent publication US9168259B2 (GRÜNENTHAL GMBH, priority 2010, dated 2015).

Molecular target: T1, KCNQ2/3 channels (Homo sapiens, UniProt O43525+O43526)
T1 construct: expressed in transfected cells
Assay: Fluorescence assay using a voltage sensitive dye (fluorimetry)
Assay type: cell-based
Conditions: CHO-K1 cells expressing KCNQ2/3; for Emax: CHO-K1, plateau effect relative to saturated retigabine (50 μM) = 100%, negative values = antagonistic, read-out: Fluorimetry % efficacy (retigabine = 100%); for EC50: IC50 where % efficacy is negative, read-out: Fluorimetry EC50/IC50

T1 sequence (O43526 whole entry): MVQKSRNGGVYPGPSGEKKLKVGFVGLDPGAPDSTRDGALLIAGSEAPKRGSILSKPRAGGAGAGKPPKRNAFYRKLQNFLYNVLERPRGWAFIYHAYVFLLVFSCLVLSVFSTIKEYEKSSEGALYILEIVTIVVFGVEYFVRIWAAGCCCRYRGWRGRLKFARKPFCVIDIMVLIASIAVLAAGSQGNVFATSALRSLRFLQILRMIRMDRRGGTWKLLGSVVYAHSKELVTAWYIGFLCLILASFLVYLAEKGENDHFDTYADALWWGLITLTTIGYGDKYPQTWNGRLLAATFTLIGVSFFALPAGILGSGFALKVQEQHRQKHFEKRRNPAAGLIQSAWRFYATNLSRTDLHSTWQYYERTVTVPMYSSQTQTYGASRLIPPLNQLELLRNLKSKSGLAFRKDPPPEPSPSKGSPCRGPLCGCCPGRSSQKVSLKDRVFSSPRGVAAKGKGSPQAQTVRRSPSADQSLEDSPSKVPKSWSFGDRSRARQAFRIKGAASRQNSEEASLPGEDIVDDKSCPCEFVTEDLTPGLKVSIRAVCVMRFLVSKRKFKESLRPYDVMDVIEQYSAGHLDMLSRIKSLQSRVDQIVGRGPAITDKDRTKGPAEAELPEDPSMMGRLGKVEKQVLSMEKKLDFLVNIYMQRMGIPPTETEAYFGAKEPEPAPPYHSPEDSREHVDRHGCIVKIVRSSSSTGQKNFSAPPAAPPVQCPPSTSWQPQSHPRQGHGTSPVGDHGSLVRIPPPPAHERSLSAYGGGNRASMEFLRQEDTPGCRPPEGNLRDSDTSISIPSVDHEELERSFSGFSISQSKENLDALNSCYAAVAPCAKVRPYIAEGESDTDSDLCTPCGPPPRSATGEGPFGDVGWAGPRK
T1 sequence (O43525 whole entry): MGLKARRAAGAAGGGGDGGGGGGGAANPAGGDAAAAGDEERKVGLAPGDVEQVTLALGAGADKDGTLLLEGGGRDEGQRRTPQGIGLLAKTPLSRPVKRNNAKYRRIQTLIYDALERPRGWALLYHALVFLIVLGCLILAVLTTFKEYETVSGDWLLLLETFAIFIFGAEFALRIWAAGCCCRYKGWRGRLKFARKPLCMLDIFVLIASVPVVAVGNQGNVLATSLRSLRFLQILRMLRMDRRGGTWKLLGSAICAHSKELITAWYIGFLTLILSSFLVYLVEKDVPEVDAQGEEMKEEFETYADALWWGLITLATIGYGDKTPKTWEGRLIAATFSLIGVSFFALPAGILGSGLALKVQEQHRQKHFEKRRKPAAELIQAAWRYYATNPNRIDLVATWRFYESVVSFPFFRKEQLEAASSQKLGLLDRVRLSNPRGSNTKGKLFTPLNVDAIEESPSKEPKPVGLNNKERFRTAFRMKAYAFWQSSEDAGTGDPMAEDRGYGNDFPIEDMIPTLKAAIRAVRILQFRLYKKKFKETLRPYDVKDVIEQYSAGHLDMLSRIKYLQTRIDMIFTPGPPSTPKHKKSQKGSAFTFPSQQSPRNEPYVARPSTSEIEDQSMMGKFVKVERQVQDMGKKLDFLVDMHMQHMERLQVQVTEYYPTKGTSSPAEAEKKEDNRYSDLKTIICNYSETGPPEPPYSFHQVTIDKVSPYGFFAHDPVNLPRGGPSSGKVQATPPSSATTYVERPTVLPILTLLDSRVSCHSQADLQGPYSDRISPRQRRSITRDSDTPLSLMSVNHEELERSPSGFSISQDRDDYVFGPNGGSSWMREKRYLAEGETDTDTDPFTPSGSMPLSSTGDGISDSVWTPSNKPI

SMILES	Emax [%]	EC50 [nM]
CCSc1nc(N2CCOCC2)cc(C)c1C(=O)NCc1ccc(F)cc1-c1ccc(F)cc1 [Example 85, 2-Ethylsulfanyl-N-[[4-fluoro-2-(4-fluorophenyl)-phenyl]-methyl]-4-methyl-6-morpholin-4-yl-pyridine-3-carboxylic acid amide]	-61	107
COc1nc(N2CCOCC2)cc(C)c1C(=O)NCCCC(C)(C)C [Example 86, N-(4,4-Dimethyl-pentyl)-2-methoxy-4-methyl-6-morpholin-4-yl-pyridine-3-carboxylic acid amide]	236	172
COc1nc(N2CCOCC2)cc(C)c1C(=O)NCc1ccc(F)c(F)c1 [Example 87, N-[(3,4-Difluoro-phenyl)-methyl]-2-methoxy-4-methyl-6-morpholin-4-yl-pyridine-3-carboxylic acid amide]	138	311
COc1nc(N2CCOCC2)cc(C)c1C(=O)NCc1ccccc1-c1ccccc1 [Example 88, 2-Methoxy-4-methyl-6-morpholin-4-yl-N-[(2-phenyl-phenyl)-methyl]-pyridine-3-carboxylic acid amide]	-83	253
CCOc1nc(N2CCOCC2)cc(C)c1C(=O)NCCCC(C)(C)C [Example 89, N-(4,4-Dimethyl-pentyl)-2-ethoxy-4-methyl-6-morpholin-4-yl-pyridine-3-carboxylic acid amide]	268	138
CCOc1nc(N2CCOCC2)cc(C)c1C(=O)NCc1cc(F)cc(F)c1 [Example 90, N-[(3,5-Difluoro-phenyl)-methyl]-2-ethoxy-4-methyl-6-morpholin-4-yl-pyridine-3-carboxylic acid amide]	134	122
CCSc1nc(N2CCOCC2)cc(C)c1C(=O)NCc1cc(F)cc(C(F)(F)F)c1 [Example 93, 2-Ethylsulfanyl-N-[[3-fluoro-5-(trifluoromethyl)-phenyl]-methyl]-4-methyl-6-morpholin-4-yl-pyridine-3-carboxylic acid amide]	103	54
CCSc1nc(N2CCOCC2)cc(C)c1C(=O)NCc1cc(C(F)(F)F)ccc1F [Example 95, 2-Ethylsulfanyl-N-[[2-fluoro-5-(trifluoromethyl)-phenyl]-methyl]-4-methyl-6-morpholin-4-yl-pyridine-3-carboxylic acid amide]	62	56
CCSc1nc(N2CCOCC2)cc(C)c1C(=O)NCc1ccc(OC(F)(F)F)cc1 [Example 97, 2-Ethylsulfanyl-4-methyl-6-morpholin-4-yl-N-[[4-(trifluoromethyloxy)-phenyl]methyl]-pyridine-3-carboxylic acid amide]	136	67
COc1nc(N2CCCOCC2)cc(C)c1C(=O)NCc1cccc(F)c1 [Example 98, N-[(3-Fluorophenyl)-methyl]-2-methoxy-4-methyl-6-([1,4]oxazepan-4-yl)-pyridine-3-carboxylic acid amide]	146	2310
CCSc1nc(N2CCOCC2)cc(C)c1C(=O)NCc1cc(F)ccc1F [Example 101, N-[(2,5-Difluoro-phenyl)-methyl]-2-ethylsulfanyl-4-methyl-6-morpholin-4-yl-pyridine-3-carboxylic acid amide]	100	133
CCSc1nc(N2CCOCC2)cc(C)c1C(=O)NCc1cccc(C#N)c1 [Example 102, N-[(3-Cyano-phenyl)-methyl]-2-ethylsulfanyl-4-methyl-6-morpholin-4-yl-pyridine-3-carboxylic acid amide]	138	1220
CCSc1nc(N2CCOCC2)cc(C)c1C(=O)NCCOC(C)C [Example 103, 2-Ethylsulfanyl-N-(2-isopropoxy-ethyl)-4-methyl-6-morpholin-4-yl-pyridine-3-carboxylic acid amide]	142	4520
CCSc1nc(N2CCOCC2)cc(C)c1C(=O)NCCC(C)(C)C [Example 104, N-(3,3-Dimethyl-butyl)-2-ethylsulfanyl-4-methyl-6-morpholin-4-yl-pyridine-3-carboxylic acid amide]	100	1400
CCSc1nc(N2CCOCC2)cc(C)c1C(=O)NCc1ccc(F)cc1F [Example 107, N-[(2,4-Difluoro-phenyl)-methyl]-2-ethylsulfanyl-4-methyl-6-morpholin-4-yl-pyridine-3-carboxylic acid amide]	90	88
CCSc1nc(N2CCOCC2)cc(C)c1C(=O)NCCCc1ccccn1 [Example 109, 2-Ethylsulfanyl-4-methyl-6-morpholin-4-yl-N-(3-pyridin-2-yl-propyl)-pyridine-3-carboxylic acid amide]	53	–

Now from value to compound:

Emax [%]	EC50 [nM]	SMILES
127	117	CCOc1nc(N2CCOCC2)cc(C)c1C(=O)NCc1ccc(F)c(F)c1 [Example 91, N-[(3,4-Difluoro-phenyl)-methyl]-2-ethoxy-4-methyl-6-morpholin-4-yl-pyridine-3-carboxylic acid amide]
-79	128	CCOc1nc(N2CCOCC2)cc(C)c1C(=O)NCc1ccccc1-c1ccccc1 [Example 92, 2-Ethoxy-4-methyl-6-morpholin-4-yl-N-[(2-phenyl-phenyl)-methyl]-pyridine-3-carboxylic acid amide]
111	39	CCSc1nc(N2CCOCC2)cc(C)c1C(=O)NCc1cccc(C(F)(F)F)c1F [Example 94, 2-Ethylsulfanyl-N-[[2-fluoro-3-(trifluoromethyl)-phenyl]-methyl]-4-methyl-6-morpholin-4-yl-pyridine-3-carboxylic acid amide]
173	1100	CCSc1nc(N2CCCOCC2)cc(C)c1C(=O)NCc1cccc(F)c1 [Example 96, 2-Ethylsulfanyl-N-[(3-fluorophenyl)-methyl]-4-methyl-6-([1,4]oxazepan-4-yl)-pyridine-3-carboxylic acid amide]
134	899	CCOc1nc(N2CCCOCC2)cc(C)c1C(=O)NCc1cccc(F)c1 [Example 99, 2-Ethoxy-N-[(3-fluorophenyl)-methyl]-4-methyl-6-([1,4]oxazepan-4-yl)-pyridine-3-carboxylic acid amide]
98	118	CCSc1nc(N2CCOCC2)cc(C)c1C(=O)NCc1cccc(F)c1F [Example 100, N-[(2,3-Difluoro-phenyl)-methyl]-2-ethylsulfanyl-4-methyl-6-morpholin-4-yl-pyridine-3-carboxylic acid amide]
207	179	CCSc1nc(N2CCOCC2)cc(C)c1C(=O)NCCCC1CCCC1 [Example 105, N-(3-Cyclopentyl-propyl)-2-ethylsulfanyl-4-methyl-6-morpholin-4-yl-pyridine-3-carboxylic acid amide]
160	172	CCSc1nc(N2CCOCC2)cc(C)c1C(=O)NCCC1CCCCC1 [Example 106, N-(2-Cyclohexyl-ethyl)-2-ethylsulfanyl-4-methyl-6-morpholin-4-yl-pyridine-3-carboxylic acid amide]
203	317	CCSc1nc(N2CCOCC2)cc(C)c1C(=O)NCCCc1ccc(F)cc1 [Example 108, 2-Ethylsulfanyl-N-[3-(4-fluorophenyl)-propyl]-4-methyl-6-morpholin-4-yl-pyridine-3-carboxylic acid amide]
